This note sets out measurements from patent publication US20260259169A1, “BETA-LACTAMASE SUBSTRATE COMPOUNDS AND ELECTROCHEMICAL DETECTION METHODS USING THEM” (priority 2023, published 2026).

The test system of data set [1] is AmpC positive clinical strains. In words: Reactivity with AmpC positive clinical strains, amperometric. Type of data set: cell-based, 11 different species. As to conditions: 30 strains, colonies in TPTZ buffer, 10 minutes at 37° C. The protocol:
The reactivities of HMRZ-86 and the CF3 (β)/4-cyanophenyl (R) [formula (I)] compounds for enzymes from Ambler classes C (AmpC cephalosporinases) were analyzed with AmpC positive clinical strains previously characterized by sequencing. These strains correspond to 11 different species, 24 different enzymes and 2 mechanisms of enzyme production [HCASE (hyperproductive) and CASEP (plasmid mediated (See Table 2) Table 2 represents the list of AmpC (Ambler class C cephalosporinases) positive clinical strains tested with the HMRZ-86 and the CF3 (β)/4-cyanophenyl (R) [formula (I)] compounds.
Colonies from 30 AmpC positive clinical strains collected from solid culture medium were diluted in a standard TPTZ buffer. […] A negative clinical strain and an positive one (CTX-M) were analyzed as […].

A short description of data set [2]: NMR stability study in relation to a dimethylformamide (DMF) reference. It is filed as physicochemical. Conditions: for degradation: DMF reference. The protocol: More particularly, when the degradation is determined by means of NMR measurements, a first sample comprising the beta-lactamase substrate compound according to the present disclosure and a second sample comprising the reference, e.g. DMF, are heated or cooled to a predefined temperature, after which the NMR measurement is performed on both samples (measurement at time=0). The same measurement is repeated on the samples after a predefined time (time=x), while their temperature is kept constant at the predefined temperature from time=0 to time=x. The difference of the integration of NMR measurement signals of both samples is determined by comparing between time=0 and time=x, thereby allowing to define the degree (percentage) of degradation of the beta-lactamase substrate compound at time=x.
The stability of the beta-lactamase substrate compounds over time at different temperatures was tested the reference HMRZ-86 of example 1 (at 1.2 mM) and the beta-lactamase substrate compound with R being 2-nitro-4-cyano of Example 1 (at 2.4 mM).
The stability was tested by a NMR stability study. The degradation was measured by measuring the evolution of the integration of NMR measurement signals of the molecule in relation to a dimethylformamide (DMF) reference. The stability of the beta-lactamase substrate compound is expressed by the percentage of degradation in function of time.
The stability of all 3 beta-lactamase substrate compounds (R being 4-cyanophenyl, group β being H, CH3 and CF3, respectively), as well as the beta-lactamase having the same group R and a group β according to formula II was tested at 20° C. in DMF as reference.

A further data set relates to IMP-3. In words: Reactivity with recombinant enzyme, amperometric. As to conditions: class B metallo-beta-lactamase, protein; CF3 compound 2.4 mM, HMRZ-86 1.2 mM; 10 minutes at 37° C. It is filed as biochemical.
The next data set concerns OXA-58. In words: Reactivity with recombinant enzyme, amperometric. Type of data set: biochemical. As to conditions: class D carbapenemase, protein; CF3 compound 2.4 mM, HMRZ-86 1.2 mM; 10 minutes at 37° C.
Another data set deals with CTX-M-8. In words: Reactivity with recombinant enzyme, amperometric. It is filed as biochemical. As to conditions: class A ESBL, protein; CF3 compound 2.4 mM, HMRZ-86 1.2 mM; 10 minutes at 37° C.
Another data set has as its system VIM-5. The experiment in a line: Reactivity with recombinant enzyme, amperometric. Conditions: class B metallo-beta-lactamase, protein; CF3 compound 2.4 mM, HMRZ-86 1.2 mM; 10 minutes at 37° C. It is filed as biochemical.
For another data set, the target named is CTX-M-25 (Escherichia coli, UniProt Q8KSA6). In words: Reactivity with recombinant enzyme, amperometric. Type of data set: biochemical. As to conditions: class A ESBL, protein; CF3 compound 2.4 mM, HMRZ-86 1.2 mM; 10 minutes at 37° C.
The test system of the next data set is IMP-22. In words: Reactivity with recombinant enzyme, amperometric. As to conditions: class B metallo-beta-lactamase, protein; CF3 compound 2.4 mM, HMRZ-86 1.2 mM; 10 minutes at 37° C. Type of data set: biochemical.
The target in the next data set is CTX-M-2 (Salmonella typhimurium, UniProt P74841). In words: Reactivity with recombinant enzyme, amperometric. It is filed as biochemical. As to conditions: class A ESBL, protein; CF3 compound 2.4 mM, HMRZ-86 1.2 mM; 10 minutes at 37° C.
In the next data set the test system is OXA-213. In words: Reactivity with recombinant enzyme, amperometric. Type of data set: biochemical. Conditions: class D carbapenemase, protein; CF3 compound 2.4 mM, HMRZ-86 1.2 mM; 10 minutes at 37° C.
The subject of another data set is IMP-31. The experiment in a line: Reactivity with recombinant enzyme, amperometric. Type of data set: biochemical. Conditions: class B metallo-beta-lactamase, protein; CF3 compound 2.4 mM, HMRZ-86 1.2 mM; 10 minutes at 37° C.
A further data set deals with IMP-11. The experiment in a line: Reactivity with recombinant enzyme, amperometric. Type of data set: biochemical. Conditions: class B metallo-beta-lactamase, protein; CF3 compound 2.4 mM, HMRZ-86 1.2 mM; 10 minutes at 37° C.
Another data set concerns the target CTX-M-14 (Escherichia coli, UniProt Q9L5C7). The experiment in a line: Reactivity with recombinant enzyme, amperometric. It is filed as biochemical. As to conditions: class A ESBL, protein; CF3 compound 2.4 mM, HMRZ-86 1.2 mM; 10 minutes at 37° C.
A further data set addresses KPC (Klebsiella pneumoniae, UniProt Q9F663). The experiment in a line: Amperometric measurement of oxidation current with KPC in TPTZ buffer. It is filed as biochemical. Conditions: 30 minutes at 37° C. The protocol:
A medium comprising 1.2 mM of substrate in a succinate buffer of pH 5.5 was prepared for each of the 8 beta-lactamase substrate compounds (7 inventive ones and the HMRZ-86 reference one).
4 different samples to be analyzed were prepared, each comprising KPC as beta-lactamase in a standard 2,4,6-tri-2-pyridinyl-1,3,5-triazine (TPTZ) buffer but in different concentrations: 239.4, 59.85, 9.975 and 4.985 ng/ml (ng of KPC per mL of TPTZ buffer). The two first concentrations of KPC aim to determine the capacity of the derivative to detect the presence of beta-lactamase whereas the two lowest concentrations aim to address the limit of detection.
Each of the […] (in other words 32 combinations) and incubated for 30 minutes at 37° C. Next, an amperometric measurement was performed on all 32 of the incubated mediums, and the oxidation current was determined. The device used was a Metrohm Dropsens and the electrodes were Metrohm Dropsens SCPE 110 electrodes. The oxidation current is the maximum current value measured between 0.1 V and 0.5 V vs. Ag/AgCl.
To test the impact of the concentration of the beta-lactamase substrate compound on the possibility to detect beta-lactamases, a further medium comprising 2.4 mM of the beta-lactamase substrate compound with R being 2-nitro-4-cyanophenyl was prepared. […] The same four beta-lactamase concentrations as in Example 1 were tested (i.e. the same samples). The incubation and measurement were performed as in Example 1.
A medium comprising 6.0 mM of each substrate in a succinate buffer of pH 5.5 was prepared. 2 different samples to be analyzed were prepared, each comprising KPC as beta-lactamase type in a standard 2,4,6-tri-2-pyridinyl-1,3,5-triazine (TPTZ) buffer, but in different concentrations: 239.4 ng/ml and 59.85 ng/ml, respectively (ng of KPC per mL of TPTZ buffer). Each of the […] was added to each of the 2 mediums (in other words 6 combinations) and incubated for 30 minutes at 37° C. Next, an amperometric measurement was performed on all 6 of the incubated mediums, and the oxidation current was determined. The equipment used was the same as that of Example 1.

The subject of the next data set is OXA-40. The experiment in a line: Reactivity with recombinant enzyme, amperometric. It is filed as biochemical. Conditions: class D carbapenemase, protein; CF3 compound 2.4 mM, HMRZ-86 1.2 mM; 10 minutes at 37° C.

As to `N#Cc1ccc(C=CC2=C(C(=O)O)N3C(=O)C(NC(=O)C(F)(F)F)C3SC2)cc1` (stereo not drawn) [CF3], the “AmpC positive clinical strains detected as positive” value in [1] (substrate 2.4 mM) was “All”. For the same compound, the “time of first signs of degradation” value in [2] was 1 weeks. Also, the “reactivity (detection)” value in the data set on IMP-3, with OXA-58, in the data set on CTX-M-8, in the data set on VIM-5, on CTX-M-25 and with IMP-22 was “Detected” in each case. For the same compound, the “reactivity (detection)” value on CTX-M-2, with OXA-213, in the data set with IMP-31, with IMP-11, on CTX-M-14 and in the data set with OXA-40 was “Detected” throughout. The “detection of the lowest tested concentration of KPC” value on KPC (6.0 mM substrate, KPC 59.85 ng/ml) is reported as “capable to detect”. Moreover, the “detection of the highest concentration of KPC” value at KPC (6.0 mM substrate, KPC 239.4 ng/ml) is recorded as “capable to detect”.
Consider `CC(C)(ON=C(C(=O)N[C@@H]1C(=O)N2C(C(=O)O)=C(C=Cc3ccc([N+](=O)[O-])cc3[N+](=O)[O-])CS[C@H]12)c1csc(N)n1)C(=O)O.O=C(O)C(F)(F)F` [HMRZ-86, reference compound], for which the “AmpC positive clinical strains detected as positive” value in [1] (HMRZ-86 1.2 mM) is listed as 53.3%. Besides, the degradation result was “over 50%” in data set [2] (4° C., after 1 day); approximately 60% in data set [2] (20° C., after 1 week); “over 90%” in [2] (20° C., after 18 weeks); approximately 60% in data set [2] (20° C., after 1 day). For the same compound, the degradation over time result in [2] (temperatures between 4° C. and 20° C.) is recorded as “significant degradation over time”. Besides, the “reactivity (detection)” value in the data set with IMP-3 was “Detected”; with OXA-58, “Not detected”; in the data set with CTX-M-8, “Detected”; with VIM-5, “Detected”; at CTX-M-25, “Detected”; in the data set on IMP-22, “Detected”. For the same compound, the “reactivity (detection)” value is on record as “Detected” at CTX-M-2; “Not detected” in the data set with OXA-213; “Detected” in the data set with IMP-31; “Detected” with IMP-11; “Detected” on CTX-M-14; “Not detected” in the data set on OXA-40. Besides, on KPC (1.2 mM substrate, succinate buffer pH 5.5, KPC 239.4, 59.85, 9.975 and 4.985 ng/ml), the “detection of the beta-lactamases (oxidation current): KPC concentrations detected” value is recorded as “all 4 concentrations”. The “detection of the beta-lactamase concentration of 9.975 ng/mL” value on KPC (1.2 mM substrate, KPC 9.975 ng/mL) is given as “could detect”.
